{"source": "paper PMC5077204", "about": "“Accumulation of Peptidoglycan O-Acetylation Leads to Altered Cell Wall Biochemistry and Negatively Impacts Pathogenesis Factors of Campylobacter jejuni” (The Journal of Biological Chemistry, 2016)", "biological_target": "T1, Ape1-His6 (Campylobacter jejuni, UniProt A0A0H3PJ52)", "T1 construct": "gene CJJ81176_0638; predicted 21-residue signal peptide removed; C-terminal His6 tag (pET28a(+)), expressed in E. coli BL21(DE3)", "T1 sequence (A0A0H3PJ52 entry or part of it)": "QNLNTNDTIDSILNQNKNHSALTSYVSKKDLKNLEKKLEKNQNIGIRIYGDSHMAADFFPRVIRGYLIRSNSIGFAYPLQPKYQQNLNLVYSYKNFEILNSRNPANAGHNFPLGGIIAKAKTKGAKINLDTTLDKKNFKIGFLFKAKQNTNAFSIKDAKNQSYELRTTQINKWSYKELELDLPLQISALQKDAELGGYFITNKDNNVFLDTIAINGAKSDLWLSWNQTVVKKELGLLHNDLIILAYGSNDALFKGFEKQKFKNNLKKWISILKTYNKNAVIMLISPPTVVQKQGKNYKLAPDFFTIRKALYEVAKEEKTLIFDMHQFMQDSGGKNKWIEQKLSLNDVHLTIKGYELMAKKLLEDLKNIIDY", "assay": "absorbance at […] nm, p-nitrophenol release", "format": "biochemical", "details": "2 mM pNPAc; 50 mM sodium phosphate pH 6.5; room temperature", "data": [{"smiles": "CC(=O)Oc1ccc([N+](=O)[O-])cc1", "note": "[p-nitrophenyl acetate]", "values": [{"measurement": "absorbance at 405 nm, p-nitrophenol release", "value": "The specific activity of purified Ape1 was determined using p-nitrophenylacetate (pNPAc)"}]}]}
